# Measured values taken from US12282027B2, “High-throughput NMR approach for in-membrane protein ligand screening” (University of South Florida, priority 2021, dated 2025).
# Target: T1, A1R receptor (Homo sapiens, UniProt P30542)
# T1 construct: FLAG (N); His10 (C); TEV protease cleavage site (N); α-Factor peptide (secretion signal) (N); made in house; host or cells: Pichia pastoris
# T1 sequence (P30542 1-326): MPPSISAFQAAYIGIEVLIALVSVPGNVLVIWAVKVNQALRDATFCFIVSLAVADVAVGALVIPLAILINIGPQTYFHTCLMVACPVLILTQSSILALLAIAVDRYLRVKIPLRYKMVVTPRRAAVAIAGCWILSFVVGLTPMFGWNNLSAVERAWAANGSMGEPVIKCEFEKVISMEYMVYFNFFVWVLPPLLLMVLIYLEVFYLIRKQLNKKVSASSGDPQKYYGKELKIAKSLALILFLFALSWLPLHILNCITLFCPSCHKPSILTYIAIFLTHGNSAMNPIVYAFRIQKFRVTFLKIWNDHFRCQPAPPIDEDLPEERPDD
# Assay: In-membrane WaterLOGSY NMR, 10× diluted A1R in yeast cell membrane (YCM)
# Assay type: binding
# Conditions: 10× diluted A1R in YCM from Pichia pastoris; FIG. 5, FIG. 8
# Description: The human A1 receptor and A2A receptor were cloned into pPIC9K with an N-terminal Flag tag and a C-terminal His tag. […] The lysed cell pellets were centrifuged at 9,720×g for 30 min to remove all debris and keep the released membrane fraction parts.
# At the end of fermentation, the cell pellets were collected after centrifugation at 4,000×g for 15 min at 4° C. and then washed once with 50 mM HEPES, pH 7.4, 100 mM NaCl buffer. The cell pellets were resuspended into Receptor Lysis Buffer (50 mM HEPES buffer, 10% glycerol, 100 mM NaCl, 2.5 mM EDTA) using the ratio of cell pellets to buffer equal to 1:4. […] The disrupted cell pellets were centrifuged at 9,720×g for 30 min at 4° C. to discard unbroken cells and cellular debris.
# NMR samples for membranes typically consisted of 270-300 μL volumes of the cell membrane in 50 mM HEPES buffer, 10% glycerol, 100 mM NaCl, 2.5 mM EDTA, doped with 10% D2O and different concentration ligands prepared in DMSO as needed.
# STD and WaterLOGSY experiments were conducted at a ^1H frequency of 600 MHz using Varian Inova spectrometer. 5 mm diameter NMR tubes with a sample volume of 270-300 μL were used in all experiments. Solutions were buffered using a HEPES buffer corrected to pH 7.4 and 10% glycerol. The sample preparation is exemplified as follows, the compound (solution in DMSO-d6), 30 μL D2O was added to 240 μL membrane in an Eppendorf tube. The resulting solution was spun to ensure full mixing and transferred to a 5 mm NMR tube before the run. Both STD and WaterLOGSY spectra were recorded for each sample. WaterLOGSY spectra in the absence of protein receptor were recorded.
row,Compound,WaterLOGSY NOE signal of the ligand (negative NOE = specific binding)
1,N[C@@H](Cc1ccc(O)c(F)c1)C(=O)O [3-fluorotyrosine],absence of obvious NOE signals
2,N[C@@H](Cc1ccc(F)cc1)C(=O)O [4-Fluorophenylalanine],positive NOEs
3,CTAP,absence of obvious NOE signals
